From PMC10470053, “Diverse p120RasGAP interactions with doubly phosphorylated partners EphB4, p190RhoGAP, and Dok1” (The Journal of Biological Chemistry, 2023)
Where “and” joins values, the source holds several entries; their conditions need not be identical. Equal values may be shown once. Read-outs that look alike come from different tables or passages of the source. Square brackets hold non-standard residues; d marks the D form. Ends that are not written are not given here. Peptide text beside a SMILES is read from it. pY = N[C@@H](Cc1ccc(OP(=O)(O)O)cc1)C(=O)O

How the values were obtained:
[1] = molecular target: T1, RasGAP^232 (p120RasGAP N-SH2, SH3, C-SH2, residues 174–444) (Homo sapiens, UniProt P20936, C236S/C261S/C372S/C402S); assay: Isothermal titration calorimetry, WT RasGAP^232 with phosphopeptides; type: binding
T1 construct: (residues 174–444, termed RasGAP^232); hexahistidine (TEV-cleavable) (N, cleaved yes); made in house; host or cells: E. coli Rosetta (DE3)
T1 sequence (P20936 174-444 C236S/C261S/C372S/C402S): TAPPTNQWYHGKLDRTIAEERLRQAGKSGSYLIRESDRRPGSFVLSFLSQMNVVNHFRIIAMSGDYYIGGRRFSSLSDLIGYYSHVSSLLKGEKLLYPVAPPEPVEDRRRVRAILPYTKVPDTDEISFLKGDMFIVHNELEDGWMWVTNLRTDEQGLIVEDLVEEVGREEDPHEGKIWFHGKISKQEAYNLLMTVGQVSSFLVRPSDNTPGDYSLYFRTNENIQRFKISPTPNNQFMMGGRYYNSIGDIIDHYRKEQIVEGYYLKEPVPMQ
Method: (§1) We expressed and purified the region of RasGAP encompassing both SH2 domains with a construct that includes the N-SH2, SH3, and C-SH2 domains (residues 174–444, termed RasGAP^232 ([50])) (Figs. 1A and S2A). Separately, we synthesized peptides containing both phosphotyrosine residues for EphB4 and Dok1 (Fig. 1C). Our previous isothermal titration calorimetry (ITC) study assessed the affinity of RasGAP^232 for doubly phosphorylated p190RhoGAP-A peptide and found a Kd of 10 ± 6 nM for tandem engagement of both phosphotyrosines by both SH2 domains ([50]).
Synthetic peptides were purchased from GenScript and contain N-terminal acetylation and C-terminal amidation for stability. The doubly phosphorylated EphB4 peptide (UniProt ID P54760) used in ITC and SAXS experiments contains residues 586 to 602 (GTKV[pTyr]IDPFT[pTyr]EDPNEA). The singly phosphorylated EphB4 peptides pY590 and pY596 used in ITC experiments contain the residues 586 to 595 (GTKV[pTyr]IDPFT) and residues 592 to 602 (DPFT[pTyr]EDPNE), respectively. The p190RhoGAP peptide (UniProt ID Q9NRY4) used in SAXS experiments contains the residues 1083 to 1111 (SD[pTyr]AEPMDAVVKPRNEEENI[pTyr]SVPH). The Dok1 peptide (UniProt ID Q99704) used in ITC and SAXS experiments contains the residues 291 to 322 (SPPAL[pTyr]AEPLDSLRIAPCPSQDSL[pTyr]SDPLDST). Lyophilized peptides were reconstituted in water, and less soluble peptides (pYpYEphB4 and pY590) were spiked with 20 mM Tris pH 8 or 10 mM NaOH to increase solubility. Concentrations of stock peptides are as follows: pYpY190 stock concentration is 10 mM; pYpYEphB4 stock concentration is 2.5 mM; Dok1 stock concentration is 5.5 mM; pY596 stock concentration is 10 mM; and pY590 stock concentration is 8 mM.
Purified RasGAP^232 protein and solubilized peptides were dialyzed overnight against buffer containing 20 mM Tris pH 8, 250 mM NaCl in Slide-A-Lyzer 3 ml 10 kDa molecular weight cut off cassettes (Spectra-Por) and Micro Float-A-Lyzer 0.1 to 0.2 ml, 0.1 to […] molecular weight cut off devices (Spectra-Por), respectively. Protein and peptide concentrations were determined by A280 measured on a Nanodrop Lite (Thermo Fisher Scientific) instrument using extinction coefficients of 45,840 M^−1 cm^−1 for RasGAP^232 (and mutants), 917 M^−1 cm^−1 for the doubly phosphorylated EphB4 peptide, and 458.5 M^−1 cm^−1 for the singly phosphorylated EphB4 peptides as determined by ([74]). Dok1 peptide concentration was confirmed using Amino Acid Analysis performed at UC Davis Molecular Structure Facility. Samples were centrifuged for 10 min at 4 °C and degassed for 7 min using a Degassing Station (TA Instruments). ITC experiments were performed on a Nano ITC (TA Instruments) by loading protein into the 190 μl sample cell and titrating 20 times with 2.5 μl peptide in the titration syringe. Concentrations for sample cell and syringe for each trial are included in Table S1. The data were analyzed in NanoAnalyze software (TA Instrument) using blank (constant) and independent models (https://www.tainstruments.com/itcrun-dscrun-nanoanalyze-software/).

[2] = molecular target: T1, RasGAP^232 (p120RasGAP N-SH2, SH3, C-SH2, residues 174–444); conditions: ref ([50]), cited from earlier work
Description: as §1, with “Table 1 Isothermal titration calorimetry measurements for p120RasGAP with phosphotyrosine-containing binding partners | column: Kd (μM); n; ΔH (kJ/mol); ΔS (J/mol∗K) || We” for “We”, “([50]). In our current study, titration of the dou ...” for “([50]).”

[3] = ITC, average of trials (Table S1)

## CC[C@H](C)[C@H](NC(=O)[C@H](CCCNC(=N)N)NC(=O)[C@H](CC(C)C)NC(=O)[C@H](CO)NC(=O)[C@H](CC(=O)O)NC(=O)[C@H](CC(C)C)NC(=O)[C@@H]1CCCN1C(=O)[C@H](CCC(=O)O)NC(=O)[C@H](C)NC(=O)[C@H](Cc1ccc(OP(=O)(O)O)cc1)NC(=O)[C@H](CC(C)C)NC(=O)[C@H](C)NC(=O)[C@@H]1CCCN1C(=O)[C@@H]1CCCN1C(=O)[C@H](CO)NC(C)=O)C(=O)N[C@@H](C)C(=O)N1CCC[C@H]1C(=O)N[C@@H](CS)C(=O)N1CCC[C@H]1C(=O)N[C@@H](CO)C(=O)N[C@@H](CCC(N)=O)C(=O)N[C@@H](CC(=O)O)C(=O)N[C@@H](CO)C(=O)N[C@@H](CC(C)C)C(=O)N[C@@H](Cc1ccc(OP(=O)(O)O)cc1)C(=O)N[C@@H](CO)C(=O)N[C@@H](CC(=O)O)C(=O)N1CCC[C@H]1C(=O)N[C@@H](CC(C)C)C(=O)N[C@@H](CC(=O)O)C(=O)N[C@@H](CO)C(=O)N[C@H](C(N)=O)[C@@H](C)O [pYpY Dok1] (Ac-SPPAL[pY]AEPLDSLRIAPCPSQDSL[pY]SDPLDST-NH2)
[1]; ITC stoichiometry, mean ± SD of trials
  n: 0.8 ± 0.1
[1]; ITC, 20 mM Tris pH 8, 250 mM NaCl, independent model, mean ± SD of trials (n = 4 EphB4, n = 3 Dok1)
  Kd: 0.03 ± 0.02 µM
[1]; [3]
  -T∆S: 8.37 kcal/mol
  Ka: 40 µM⁻¹
  ∆G: -10.3 kcal/mol
[1]; ITC, mean ± SD of trials
  ΔH: -18.6 kcal/mol and -18.6 ± 0.72 kcal/mol
  ΔS: -120 J/mol∗K and −120 ± 14 J/mol∗K
[1]; trial 1, ITC
  -T∆S: 7.17 kcal/mol
  Ka: 63 µM⁻¹
  ∆G: -10.5 kcal/mol
  ∆H: -17.9 kcal/mol
  ∆S: -102 J/mol*K
[1]; trial 2, ITC
  -T∆S: 9.32 kcal/mol
  Ka: 21 µM⁻¹
  ∆G: -10 kcal/mol
  ∆H: -19.4 kcal/mol
  ∆S: -131 J/mol*K
[1]; trial 3, ITC
  -T∆S: 8.37 kcal/mol
  Ka: 43 µM⁻¹
  ∆G: -10.5 kcal/mol
  ∆H: -18.6 kcal/mol
  ∆S: -116 J/mol*K

## SD[pY]AEPMDAVVKPRNEEENI[pY]SVPH [pYpY p190RhoGAP-A, Doubly phosphorylated p190RhoGAP-A peptide (pY1087, pY1105)]
[1]; ITC Kd, compared with individual SH2 interactions (Table 1, ref [60])
  affinity tighter than individual SH2–phosphotyrosine interactions: 15- to 30 fold
[2]; ITC stoichiometry
  n: 0.6 ± 0.1
[2]; ITC
  Kd: 0.01 ± 0.006 µM
  ΔH: -31.1 ± 4.78 kcal/mol
  ΔS: −281 ± 77 J/mol∗K
